# Values quoted from earlier work, collected in PubChem BioAssay AID1259409 (Chemical Carcinogenesis Research Information System (CCRIS), 2018).
# Test system: rodent chemically induced tumor inhibition, incidence and multiplicity
# Experiment: CCRIS tumor inhibitor studies
# Settings: Route [Inhibitor]: ORAL, Promoter: NONE USED
smiles,measurement,setting,value
COc1ccc([C@@H]2CC(=O)c3c(O)cc(O[C@@H]4O[C@H](CO[C@@H]5O[C@@H](C)[C@H](O)[C@@H](O)[C@H]5O)[C@@H](O)[C@H](O)[C@H]4O)cc3O2)cc1O,"tumour outcome (control, treated, inhibition, significance)","Carcinogen: AZOXYMETHANE, 25843-45-2, Dose [Inhibitor]: 0, 1000 PPM IN DIET FOR 28 WK BEGINNING 1 WK POST CARCINOGEN TREATMENT (STUDY DURATION: 32 WK), Species: RAT, Strain/Sex: F344/MALE, Target Tissue: Type of Lesion: SMALL INTESTINE: TUMOR, Dose [Carcinogen]: 15 MG/KG BW 1/WK FOR 3 WK","5/17 (29%), 0/20 (0%), 100%, p<0.05"
same,"tumour outcome (control, treated, inhibition, significance)","Carcinogen: N-BUTYL-N-(4-HYDROXYBUTYL)NITROSAMINE, 3817-11-6, Dose [Inhibitor]: 0, 1000 PPM IN DIET FOR 8 WK BEGINNING 1 WK PRIOR TO CARCINOGEN TREATMENT (STUDY DURATION: 32 WK), Species: MOUSE, Strain/Sex: ICR/MALE, Target Tissue: Type of Lesion: URINARY BLADDER: PAPILLOMA, Dose [Carcinogen]: 500 PPM IN DRINKING WATER FOR 6 WK","5/26 (19%), 1/23 (4%), 79%, not significant"
same,"tumour outcome (control, treated, inhibition, significance)","Carcinogen: N-BUTYL-N-(4-HYDROXYBUTYL)NITROSAMINE, 3817-11-6, Dose [Inhibitor]: 0, 1000 PPM IN DIET FOR 24 WK BEGINNING 1 WK POST CARCINOGEN TREATMENT (STUDY DURATION: 32 WK), Species: MOUSE, Strain/Sex: ICR/MALE, Target Tissue: Type of Lesion: URINARY BLADDER: PAPILLOMA, Dose [Carcinogen]: 500 PPM IN DRINKING WATER FOR 6 WK","5/26 (19%), 3/25 (12%), 37%, not significant"
same,"tumour outcome (control, treated, inhibition, significance)","Carcinogen: N-BUTYL-N-(4-HYDROXYBUTYL)NITROSAMINE, 3817-11-6, Dose [Inhibitor]: 0, 1000 PPM IN DIET FOR 24 WK BEGINNING 1 WK POST CARCINOGEN TREATMENT (STUDY DURATION: 32 WK), Species: MOUSE, Strain/Sex: ICR/MALE, Target Tissue: Type of Lesion: URINARY BLADDER: TRANSITIONAL CELL CARCINOMA, Dose [Carcinogen]: 500 PPM IN DRINKING WATER FOR 6 WK","16/26 (62%), 5/25 (20%), 68%, p<0.005"
same,"tumour outcome (control, treated, inhibition, significance)","Carcinogen: N-BUTYL-N-(4-HYDROXYBUTYL)NITROSAMINE, 3817-11-6, Dose [Inhibitor]: O, 1000 PPM IN DIET FOR 8 WK BEGINNING 1 WK PRIOR TO CARCINOGEN TREATMENT (STUDY DURATION: 32 WK), Species: MOUSE, Strain/Sex: ICR/MALE, Target Tissue: Type of Lesion: URINARY BLADDER: TRANSITIONAL CELL CARCINOMA, Dose [Carcinogen]: 500 PPM IN DRINKING WATER FOR 6 WK","16/26 (62%), 3/23 (13%), 79%, p<0.001"
same,"tumour outcome (control, treated, inhibition, significance)","Carcinogen: N-METHYL-N-AMYLNITROSAMINE, 13256-07-0, Dose [Inhibitor]: 0, 1000 PPM IN DIET FOR 7 WK BEGINNING 1 WK POST CARCINOGEN TREATMENT (STUDY DURATION: 20 WK), Species: RAT, Strain/Sex: WISTAR/MALE, Target Tissue: Type of Lesion: ESOPHAGUS: SQUAMOUS CELL CARCINOMA, Dose [Carcinogen]: 12.5 MG/KG BW 1/WK FOR 12 WK","75%, 56%, 25%, not significant"
same,"tumour outcome (control, treated, inhibition, significance)","Carcinogen: N-METHYL-N-AMYLNITROSAMINE, 13256-07-0, Dose [Inhibitor]: 0, 1000 PPM IN DIET FOR 7 WK BEGINNING 1 WK POST CARCINOGEN TREATMENT (STUDY DURATION: 20 WK), Species: RAT, Strain/Sex: WISTAR/MALE, Target Tissue: Type of Lesion: ESOPHAGUS: SQUAMOUS CELL PAPILLOMA, Dose [Carcinogen]: 12.5 MG/KG BW 1/WK FOR 12 WK","100%, 100%, 0%, not significant"
same,"tumour outcome (control, treated, inhibition, significance)","Carcinogen: N-METHYL-N-AMYLNITROSAMINE, 13256-07-0, Dose [Inhibitor]: 0, 1000 PPM IN DIET FOR 7 WK BEGINNING 1 WK POST CARCINOGEN TREATMENT (STUDY DURATION: 20 WK), Species: RAT, Strain/Sex: WISTAR/MALE, Target Tissue: Type of Lesion: TONGUE: SQUAMOUS CELL CARCINOMA, Dose [Carcinogen]: 12.5 MG/KG BW 1/WK FOR 12 WK","17%, 16%, 6%, not significant"
same,"tumour outcome (control, treated, inhibition, significance)","Carcinogen: N-METHYL-N-AMYLNITROSAMINE, 13256-07-0, Dose [Inhibitor]: 0, 1000 PPM IN DIET FOR 7 WK BEGINNING 1 WK POST CARCINOGEN TREATMENT (STUDY DURATION: 20 WK), Species: RAT, Strain/Sex: WISTAR/MALE, Target Tissue: Type of Lesion: TONGUE: SQUAMOUS CELL PAPILLOMA, Dose [Carcinogen]: 12.5 MG/KG BW 1/WK FOR 12 WK","33%, 16%, 52%, not calculated"
same,"tumour outcome (control, treated, inhibition, significance)","Carcinogen: N-METHYL-N-AMYLNITROSAMINE, 13256-07-0, Dose [Inhibitor]: 0, 1000 PPM IN DIET FOR 13 WK BEGINNING 1 WK PRIOR TO CARCINOGEN TREATMENT (STUDY DURATION: 20 WK), Species: RAT, Strain/Sex: WISTAR/MALE, Target Tissue: Type of Lesion: ESOPHAGUS: SQUAMOUS CELL CARCINOMA, Dose [Carcinogen]: 12.5 MG/KG BW 1/WK FOR 12 WK","75%, 45%, 40%, not significant"
same,"tumour outcome (control, treated, inhibition, significance)","Carcinogen: N-METHYL-N-AMYLNITROSAMINE, 13256-07-0, Dose [Inhibitor]: 0, 1000 PPM IN DIET FOR 13 WK BEGINNING 1 WK PRIOR TO CARCINOGEN TREATMENT (STUDY DURATION: 20 WK), Species: RAT, Strain/Sex: WISTAR/MALE, Target Tissue: Type of Lesion: ESOPHAGUS: SQUAMOUS CELL PAPILLOMA, Dose [Carcinogen]: 12.5 MG/KG BW 1/WK FOR 12 WK","100%, 100%, 0%, not significant"
same,"tumour outcome (control, treated, inhibition, significance)","Carcinogen: N-METHYL-N-AMYLNITROSAMINE, 13256-07-0, Dose [Inhibitor]: 0, 1000 PPM IN DIET FOR 13 WK BEGINNING 1 WK PRIOR TO CARCINOGEN TREATMENT (STUDY DURATION: 20 WK), Species: RAT, Strain/Sex: WISTAR/MALE, Target Tissue: Type of Lesion: TONGUE: SQUAMOUS CELL CARCINOMA, Dose [Carcinogen]: 12.5 MG/KG BW 1/WK FOR 12 WK","17%, 0%, 100%, not calculated"
same,"tumour outcome (control, treated, inhibition, significance)","Carcinogen: N-METHYL-N-AMYLNITROSAMINE, 13256-07-0, Dose [Inhibitor]: 0, 1000 PPM IN DIET FOR 13 WK BEGINNING 1 WK PRIOR TO CARCINOGEN TREATMENT (STUDY DURATION: 20 WK), Species: RAT, Strain/Sex: WISTAR/MALE, Target Tissue: Type of Lesion: TONGUE: SQUAMOUS CELL PAPILLOMA, Dose [Carcinogen]: 12.5 MG/KG BW 1/WK FOR 12 WK","33%, 10%, 70%, not significant"
